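Five compound concentrations were applied to cells in 96-well plates for 48 hours; endpoints were derived by simple linear interpolation of the resulting dose-response curve. The concentration for 50% growth inhibition is given as GI50.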 Active and inactive are the calls of the source. Rule as the data show it: active = GI50 up to about 1.1 µM and inactive = higher.
Experiments:
Assay in all cases: NCI anticancer screen, dose series, 48 h
[1] = tested on: NCI-H23
[2] = tested on: MDA-MB-231
[3] = tested on: SF-295
[4] = tested on: HL-60
[5] = tested on: Malme-3M
[6] = tested on: CAKI-1
[7] = tested on: HCT-116
[8] = tested on: UO-31
[9] = tested on: SK-OV-3
[10] = tested on: IGROV-1
[11] = tested on: SK-MEL-5
[12] = tested on: MOLT-4
[13] = tested on: SW-620
[14] = tested on: MDA-MB-435
[15] = tested on: LOX IMVI
[16] = tested on: SK-MEL-2
[17] = tested on: OVCAR-5
[18] = tested on: EKVX
[19] = tested on: UACC-257
[20] = tested on: OVCAR-4
[21] = tested on: Hs-578T
[22] = tested on: NCI-H460
[23] = tested on: ACHN
[24] = tested on: NCI-H522
[25] = tested on: KM12
[26] = tested on: PC-3
[27] = tested on: BT-549
[28] = tested on: COLO 205
[29] = tested on: SR
[30] = tested on: NCI/ADR-RES
[31] = tested on: CCRF-CEM
[32] = tested on: SK-MEL-28
[33] = tested on: SNB-75
[34] = tested on: SF-268
[35] = tested on: TK-10
[36] = tested on: 786-0
[37] = tested on: M14
[38] = tested on: RPMI-8226
[39] = tested on: A549
[40] = tested on: SN12C
[41] = tested on: K562
[42] = tested on: OVCAR-3
[43] = tested on: A498
[44] = tested on: T47D
[45] = tested on: NCI-H226
[46] = tested on: HCC 2998
[47] = tested on: HOP-62
[48] = tested on: OVCAR-8
[49] = tested on: HT-29
[50] = tested on: MDA-N
[51] = tested on: MCF7
[52] = tested on: RXF 393
[53] = tested on: SNB-19
[54] = tested on: U-251
[55] = tested on: DU-145
[56] = tested on: SF-539
[57] = tested on: HOP-92
[58] = tested on: HCT-15
[59] = tested on: UACC-62

O=C1C=CC(=O)c2c(O)c(N3CCN(c4ccccn4)CC3)cc(O)c21
GI50 [1]: 3.4 µM (inactive)
GI50 [2]: 13 µM (inactive)
GI50 [3]: 17.5 µM (inactive)
GI50 [4]: 3.01 µM (inactive)
GI50 [5]: 0.553 µM (active)
GI50 [6]: 8 µM (inactive)
GI50 [7]: 2.85 µM (inactive)
GI50 [8]: 8.28 µM (inactive)
GI50 [9]: 28.1 µM (inactive)
GI50 [10]: 10.1 µM (inactive)
GI50 [11]: 1.77 µM (inactive)
GI50 [12]: 4.22 µM (inactive)
GI50 [13]: 3.58 µM (inactive)
GI50 [14]: 0.851 µM (active)
GI50 [15]: 3.95 µM (inactive)
GI50 [16]: 5.92 µM (inactive)
GI50 [17]: 46.5 µM (inactive)
GI50 [18]: 23.9 µM (inactive)
GI50 [19]: 4.07 µM (inactive)
GI50 [20]: 11.6 µM (inactive)
GI50 [21]: 16.1 µM (inactive)
GI50 [22]: 3.24 µM (inactive)
GI50 [23]: 6.89 µM (inactive)
GI50 [24]: 5.06 µM (inactive)
GI50 [25]: 11 µM (inactive)
GI50 [26]: 16.2 µM (inactive)
GI50 [27]: 10.7 µM (inactive)
GI50 [28]: 5.35 µM (inactive)
GI50 [29]: 3.19 µM (inactive)
GI50 [30]: 2.33 µM (inactive)
GI50 [31]: 3.07 µM (inactive)
GI50 [32]: 13.7 µM (inactive)
GI50 [33]: 7.41 µM (inactive)
GI50 [34]: 11.9 µM (inactive)
GI50 [35]: 34.7 µM (inactive)
GI50 [36]: 7.24 µM (inactive)
GI50 [37]: 3.29 µM (inactive)
GI50 [38]: 4.68 µM (inactive)
GI50 [39]: 5.85 µM (inactive)
GI50 [40]: 7.6 µM (inactive)
GI50 [41]: 4.38 µM (inactive)
GI50 [42]: 4.18 µM (inactive)
GI50 [43]: 34.4 µM (inactive)
GI50 [44]: 29.4 µM (inactive)
GI50 [45]: 45.7 µM (inactive)
GI50 [46]: 8.73 µM (inactive)
GI50 [47]: 21 µM (inactive)
GI50 [48]: 5.69 µM (inactive)
GI50 [49]: 4.3 µM (inactive)
GI50 [50]: 2.41 µM (inactive)
GI50 [51]: 3.11 µM (inactive)
GI50 [52]: 7.26 µM (inactive)
GI50 [53]: 19.2 µM (inactive)
GI50 [54]: 5.64 µM (inactive)
GI50 [55]: 12.6 µM (inactive)
GI50 [56]: 4.85 µM (inactive)
GI50 [57]: 10.2 µM (inactive)
GI50 [58]: 3.28 µM
GI50 [59]: 5.9 µM (inactive)

O=C(O)c1c(-c2c3ccc(=O)cc-3oc3cc(O)ccc23)cc2ccccc2c1-c1ccccc1
GI50 [1]: > 100 µM (inactive)
GI50 [2]: > 100 µM (inactive)
GI50 [3]: > 100 µM (inactive)
GI50 [4]: > 74.6 µM (inactive)
GI50 [5]: > 100 µM (inactive)
GI50 [6]: > 100 µM (inactive)
GI50 [7]: > 100 µM (inactive)
GI50 [8]: > 100 µM (inactive)
GI50 [9]: > 100 µM (inactive)
GI50 [10]: > 100 µM (inactive)
GI50 [11]: > 100 µM (inactive)
GI50 [12]: 4.85 µM (inactive)
GI50 [13]: > 100 µM (inactive)
GI50 [14]: > 100 µM (inactive)
GI50 [15]: > 100 µM (inactive)
GI50 [16]: > 100 µM (inactive)
GI50 [17]: > 100 µM (inactive)
GI50 [18]: > 100 µM (inactive)
GI50 [19]: > 100 µM (inactive)
GI50 [20]: > 100 µM (inactive)
GI50 [21]: > 100 µM (inactive)
GI50 [22]: > 66.4 µM (inactive)
GI50 [23]: > 100 µM (inactive)
GI50 [24]: > 100 µM (inactive)
GI50 [25]: > 100 µM (inactive)
GI50 [26]: > 100 µM (inactive)
GI50 [27]: > 100 µM (inactive)
GI50 [28]: > 100 µM (inactive)
GI50 [29]: > 100 µM (inactive)
GI50 [30]: > 100 µM (inactive)
GI50 [31]: > 20.6 µM (inactive)
GI50 [32]: > 100 µM (inactive)
GI50 [33]: 41.5 µM (inactive)
GI50 [34]: > 100 µM (inactive)
GI50 [35]: > 36.6 µM (inactive)
GI50 [36]: > 100 µM (inactive)
GI50 [37]: > 100 µM (inactive)
GI50 [38]: > 100 µM (inactive)
GI50 [39]: > 100 µM (inactive)
GI50 [40]: > 100 µM (inactive)
GI50 [41]: 4.51 µM (inactive)
GI50 [42]: > 100 µM (inactive)
GI50 [43]: > 100 µM (inactive)
GI50 [44]: > 93.1 µM (inactive)
GI50 [45]: > 100 µM (inactive)
GI50 [46]: > 34 µM (inactive)
GI50 [47]: > 100 µM (inactive)
GI50 [48]: > 100 µM (inactive)
GI50 [49]: > 100 µM (inactive)
GI50 [50]: > 100 µM (inactive)
GI50 [51]: > 100 µM (inactive)
GI50 [52]: > 100 µM (inactive)
GI50 [53]: > 100 µM (inactive)
GI50 [54]: > 100 µM (inactive)
GI50 [55]: > 100 µM (inactive)
GI50 [56]: > 100 µM (inactive)
GI50 [57]: > 100 µM (inactive)
GI50 [58]: > 100 µM
GI50 [59]: > 100 µM (inactive)

Source: ChEMBL document CHEMBL1201862, “PubChem BioAssay data set” (2004)
